Test system: mammalian tissues
Experiment: pharmacological screening of purified compounds in mammalian tissues
Settings: result in words
From the text: The invention further relates to methods of screening pharmacological activities of the said compounds in mammalian tissues.
vii) testing the pure compounds by using methods of pharmacology, and
Pharmacological Testing of Pure Compounds

Compound	biological activity shown by the extract
C=C(C)[C@@H]1CC[C@]2(CO)CC[C@]3(C)[C@H](CC[C@@H]4[C@@]5(C)CC[C@H](O)C(C)(C)[C@@H]5CC[C@]43C)[C@@H]12 [Betulin]	maintained
CCCCCCCCCCCCCCCC(=O)OC [Methyl palmitate]	maintained

Source: US6428823B1, “Biologically active aqueous fraction of an extract obtained from a mangrove plant Salvadora persica L” (Council of Scientific & Industrial Research, priority 2001, dated 2002)
